These results are taken from patent publication US20140303109A1 (priority 2010, published 2014).

For assay [1], the system named is BxPC-3 cells. The assay can be described thus: MTT cell viability, BxPC-3 (gemcitabine-sensitive). The assay is classed as cell-based, human. The settings on record: 0.1-4.0 μMol/L. How it is done: Cell growth was assessed by an MTT assay in a manner similar to that as described above. The color intensity was measured by a TECAN microplate fluorometer (Tecan Group, LTD, Research Triangle Park, N.C.) at 595 nm.

For assay [2], the system named is CD44 and EpCAM. The assay can be described thus: CD44 and EpCAM immunostaining of pancreatospheres. The assay is classed as cell-based, human. Particulars: AsPC-1 and AsPC-1-GTR, 7 days. The procedure: Single cell suspensions of AsPC-1 and AsPC-1-GTR were plated into sphere formation media as previously described. After 7 days, the pancreatospheres were collected, washed, and fixed. The CSC biomarkers, CD44 and EpCAM, were used for immunostaining and the pancreatospheres were examined with confocal microscopy.

Assay [3] concerns NF-κB DNA binding activity. The assay is described as follows: EMSA for NF-κB DNA binding activity in tumor tissue. Type of assay: in vivo, mice. The settings on record: MIA PaCa-2 tumors. How it is done:
Nuclear extracts were prepared from tumor tissue induced by the MIA PaCa-2 cells using an homogenizer with 400 μl of ice cold lysis buffer extracted as described earlier. EMSA was performed using the Odyssey Infrared Imaging System with NF-κβ 1RDye labeled oligonucleotide from LI-COR, Inc. (Lincoln, Nebr.). An NF-Kβ competition control study was conducted using unlabeled NF-Kβ consensus oligonucleotide. The samples were loaded and run at 30 mA for 1 hour. The gel was scanned using Odyssey Infrared Imaging System (LI-COR, Inc.).
A general note: Mobility shift assays separate free from complexed probe on a gel.

Assay [4] deals with AsPC-1, AsPC1-GTR, MIAPaCa-2, and MIAPaCa-2-GTR cell lines. The assay is described as follows: MTT cell survival and combination index, four PC lines. The assay is classed as cell-based, human. Particulars: 72 h, 4 μMol/L. The text has this: Untreated control has been assigned a value of 100%. The p value shown represents comparisons between a single agent t and their combinations by using a paired t-test. A combination Index (CI)<1 for the CDF and GEM combination indicates synergism. The results are shown on FIGS. 17A to 17D.

Assay [5] relates to BxPC-3 pancreatic cancer cells. The assay is described as follows: MTT assay, BxPC-3 cell growth, 72 h. Type of assay: cell-based, human. Particulars: various concentrations. How it is done: The concentrations were 10 μM, 20 μM, and 30 μM. After aspiration of growth medium, (3-(4,5-Dimethylthiazol-2-yl)-2,5-diphenyltetrazolium bromide (MTT; 1 mg/ml) was added to the cell cultures, followed by incubation for 3 hours at 37° C. After the cells were crystallized, the MTT was removed and dimethylsulfoxide (DMSO) was added to dissolve the metabolized MTT product. The absorbance was then measured on a Wallac Victor^3 1420 Multi-label counter at 540 nm.
The results are shown on FIG. 5 which is a series of four bar graphs, labeled FIG. 5A through FIG. 5D.

Assay [6] concerns pancreatospheres of AsPC-1, AsPC1-GTR, MIAPaCa-2, and MIAPaCa-2-GTR cells. The assay can be described thus: Sphere disintegration assay. Type of assay: cell-based, human. Particulars: 5 days treatment of 10-day spheres. The text has this: After allowing 10 days to generate the formation of pancreatospheres, the cells were subjected to the treating agent for 5 days.
The test system of assay [7] is AsPC-1-GTR and MIAPaCa-2-GTR cells. The assay can be described thus: Clonogenic assay, gemcitabine/tarceva-resistant lines. Type of assay: cell-based, human. Particulars: 4 μmol/L CUR or CDF, 20 nmol/L GEM.
The subject of assay [8] is COX-2, PTEN expression. The assay can be described thus: Western blot of COX-2 and PTEN in tumor remnants. Type of assay: in vivo, mice. Particulars: MIAPaCa-2 tumors. The procedure:
COX-2, PTEN, and β-actin expression was determined by Western blot.
Background: In western blotting, separated proteins are transferred to a membrane and probed.

Assay [9] deals with VEGF. The assay can be described thus: AlphaLISA VEGF secretion. Particulars: 72 h; MIAPaCa-E and MIAPaCa-M. The assay is classed as cell-based, human. An excerpt:
The effect of CDF on another downstream transcriptional target of NF-κβ, vascular endothelial growth factor (VEGF) secretion, was studied in the three human pancreatic cell lines.
(Bead proximity is the source of the signal in Alpha formats.)

Assay [10] relates to rabbit 20S proteasome. The assay can be described thus: Chymotrypsin-like activity of purified 20S proteasome (Suc-LLVY-AMC). The assay is classed as biochemical. An excerpt: Purified rabbit 20S proteasome and a fluorogenic substrate Suc-LLVY-AMC for the proteasomal chymotrypsin-like activity were obtained from Calbiochem Inc. (San Diego, Calif.).
Assay [11] concerns NF-κB DNA binding activity. The assay is described as follows: EMSA for NF-κB DNA binding activity, MIA PaCa-2. The assay is classed as cell-based, human. Particulars: CUR 4 μM, CDF 2 μM.

As for `COc1cc(/C=C/C(=O)C(=Cc2ccc(F)c(F)c2)C(=O)/C=C/c2ccc(O)c(OC)c2)ccc1O` [CDF, (1E,6E)-1,7-bis(4-hydroxy-3-methoxyphenyl)hepta-1,6-diene{4(3,4 difluorobenzaldehyde)}-3,5-dione], the cell viability result in assay [1] is given as “significant reduction in cell viability”. Further, the “expression of CD44 and EpCAM in pancreatospheres” value in assay [2] was “decreased the expression of CD44 and EpCAM in pancreatospheres”. In addition, the “NF-κβ activation in tumor tissue” value in assay [3] was “down-regulated NF-κβ activation”. For the same compound, the cell survival entry in [4] is given as “much more significant reduction of cell survival in PC cells than GEM, CUR, or their combination”. In [5], the cell growth inhibition entry is “superior to CUR in inducing cell growth inhibition”. The disintegration of pancreatospheres result in assay [6] is given as “remarkably increased disintegration of pancreatospheres”. For the same compound, the reduction of clonogenicity in assay [7] was determined as 80%. Further, in [8], the “expression of PTEN in tumor remnants” value is “up-regulated”. Moreover, the “secreted levels of VEGF” value in assay [9] is listed as “significant inhibition of secreted levels of VEGF”.

Regarding `COc1cc(/C=C/C(=O)CC(=O)/C=C/c2ccc(O)c(OC)c2)ccc1O` [CUR, (1E,6E)-1,7-bis(4-hydroxy-3-methoxyphenyl)hepta-1,6-diene-3,5-dione, reference compound], in [10] (10 μM), the proteasome inhibition stood at 70%. The “inhibition of chymotrypsin-like activity of the proteasome” value in [10] (1-10 μM, 2 h 37° C.) is 20-70%. Besides, the “NF-κB DNA binding activity” value in [11] is “down-regulation of NF-κB”.
